Test results reported in US7326562B2, “Biological indicator system to detect effectiveness of sterilization” (priority 1999, dated 2008).

How the values were obtained:
[1] = tested on: B. subtilis spores
Protocol: The sterilization cycle requires about 70 minutes to complete. […] The STERRAD* employed a non-biological indicator comprising a Chemical Indicator strip supplied by the manufacturer which changed from red to yellow (or lighter) as compared to the color bar on the strip when exposed to H2O2 during the processing cycle. Also, a BI (B. subtilis spore strips) was incubated in a nutrient broth for 7 days to determine successful sterilization.
For all H2O2 sterilized cultures, the BI challenge was one ml of B. subtilis spores at a concentration of 1.7×10^8/ml which were air-dried onto a glass slide as described previously elsewhere herein. After completion of the STERRAD Cycle of approximately 70 minutes, the BI culture was diluted and the cells were suspended in 5% BHI, as described above. The culture was diluted to the same concentration as the control BI and the sample was heat-shocked at 70° C. for 10 minutes and incubated at 37° C. for 24 hours to detect any viable cells present. MALS measurements were obtained at 0 minutes, 30 minutes, 1 hour, 2 hours, 3 hours, 4 hours, and 4.75 hours, and parallel samples were obtained for analysis by AODC direct counting. Direct plating on TSA was also performed to determine the presence of viable cells. […]

[2] = tested on: B. subtilis (Difco) spores; experiment: MALS (DAWN-F) measurement of spores directly after ozone treatment; type: cell-based, Bacillus subtilis; details: 0.3 ppm ozone; for MALS Intensity: no incubation
Source text: The MALS instrument used was the DAWN Model F (Wyatt Technology Corp., Santa Barbara, Calif.), which is a flow-through instrument permitting the liquid from a sample to pass through a flow cell while continuously making measurements on the particles as they pass through the cell. Otherwise, the instrument is virtually identical to the DAWN Model B previously described elsewhere herein.
(§1) Ozone model CD-1B (Aqua-Flo, Inc., Baltimore, Md.), equipped with voltage regulator and oxygen flow controls was used to generate an ozone doses of 0.3 to 0.35 ppm in water. Ozone was generated from oxygen, supplied from an oxygen tank with O2 purity of more than about 99.9%. The generator was fitted with a voltage regulator and an oxygen flow regulator which enabled the precise setting of oxygen flow and voltage parameters such that the desired concentration of O3 could be maintained continuously. An oxygen flow rate of 8 ft^3/hr, at 5 psi, and approximately 70 to 80 amps was used to generate the concentrations specified. Excess (head) ozone was passed through a platinum catalyst that converted it back to oxygen where it was released into a vented chemical safety hood.
(§2) By the use of toggle switches, the ozone was directed through glass spargers into either of two specifically designated 2-liter Erlenmeyer flasks containing one liter of distilled water. Either a solution of a test chemical or a suspension of microorganisms, or both, was introduced into the flasks via tubes at the top, which passed into the flasks through rubber stoppers that sealed off the system. Samples could be withdrawn at the bottom of the flasks by opening a stopcock. The ozone concentrations were measured using chemical oxidation of indigo dye using an Ozone Pocket Colorimeter™ per manufacturer's instructions (HACH, Inc., Loveland, Colo.). Bacillus spores, at a concentration of 2×10^6 spores/milliliter were exposed to ozone for treatment times of 0, 5, 10, 15, 20, and 30 minutes, after which times they were measured by MALS, AODC, and CFU, respectively.
(§3) Ozone treatment of microbes is representative of cold sterilization and disinfection. […] Bacillus subtilis spores, at an concentration of 2×10^6 spores/milliliter were exposed to ozone at treatment times of 0, 5, 10, 15, 20, and 30 minutes, at which times they were measured by MALS, AODC, and CFU, respectively. All measurements were made on spores immediately and without the need for incubation. […] These measurements could be correlated directly with the cumulative concentration of ozone with increasing time of exposure. […] For a kill of […] (reduction from 2.1×10^6 to 1.8×10^3 spores/ml) the CT is 0.3 ppm×15 min=4.5. For a kill of 99.995% (reduction from 2.1×10^6 to 10 spores/mL), it is 0.3 ppm×30 min=9.
(§4) Table 2 gives a direct comparison of MALS, AODC, and CFU data for ozone treatment of B. subtilis spores over at 5-minute intervals over a 30-min period. All MALS and AODC measurements were made on spores immediately after treatment, and in the absence of incubation. Spores were plated immediately onto Trypticase Soy Agar after treatment to verify the number of surviving spores (CFU).
(§5) Ozone treatment of microbes is representative of cold sterilization and disinfection.

[3] = tested on: B. subtilis (Difco) spores; experiment: Acridine orange direct counts (AODC) of spores directly after ozone treatment; type: cell-based, Bacillus subtilis; details: 0.3 ppm ozone
Protocol: One ml samples of the culture to be counted were placed into small conical vials and the cell culture was fixed by adding 30 μl of a 36.5-38.0% formalin solution. After fixing the culture with formalin for at least about 30 minutes, the sample was either refrigerated or the AO staining procedure was carried to completion. To stain, 100 μl of a 0.1% acridine orange solution were added to the 1.0 ml spore sample and the dye was allowed to react with the spores for approximately five to eight minutes. Polycarbonate membranes (Poretics®, Osmonics, Livermore Calif.) 25 mm in diameter, 0.2 μm porosity, and black in color were soaked in sterile, distilled water for about 5 to 10 minutes. The membranes were then placed on a millipore filter apparatus. One ml aliquots from control or treated samples which had been stained with AO were placed onto the filters and vacuum was applied. The samples were filtered until the fluid was removed. Then, the filter apparatus container from which the fluid had been removed was rinsed with distilled water to ensure that all cells or spores were impinged upon the filter surface. The filter was laid upon a clean microscope slide, a drop of mineral oil applied to the surface of the membrane, and a clean coverslip was laid onto the membrane.
The AODC slide was examined under a microscope using ultraviolet optics (Olympus VANOX-T equipped for light, phase-contrast, and UV-fluorescence microscopy) which microscope was also fitted with photographic and TV Monitoring equipment. A scaled grid in the eyepiece of the microscope permitted the direct counting of the bacterial spores, bacilli, or other bodies that are stained by the dye and which fluoresce under the UV optics. To determine the number of cells/spores in a sample, the number counted in the entire grid was multiplied by 3.3×10^4 and by any dilution factor of the sample.
as §2, §4, §5

[4] = biological target: B. subtilis (Difco) spores; experiment: Viable plate counts (CFU) on trypticase soy agar after ozone treatment; type: cell-based, Bacillus subtilis; details: for kill of the spore population / viable spores after treatment / CFU % of AODC / CFU % of Control / CFU/ml: 0.3 ppm ozone; for viable spores after treatment: reduction from 2.1×10^6; for CFU/ml: CFU after 24 hours incubation
Protocol: Dried spores from the sample vials or glass slides were eluted into sterile distilled water, plated directly, serially diluted (up to 10^−6), and plated onto TSA. After 18 to 24 hours of incubation at 37° C. for B. subtilis and 55° C. for B. stearothermophilus), the viable colony forming units (CFU) were counted. Plates that had no colonies were incubated for several more days (up to 7 days) to ensure that there were no damaged, but viable spores. From each of the same samples, Trypticase Soy broth was inoculated and incubated for up to seven days to ensure that there were no surviving bacteria in the negative assays.
The spores were eluted from the biological indicator slides or scintillation vials into 20 ml of sterile distilled water and 0.1 ml of the sample was spread onto TSA plates.
as §2, §3, §4, §5

[5] = tested on: B. stearothermophilus spores; experiment: Ozone treatment of B. stearothermophilus spores, MALS directly after treatment; type: cell-based, Bacillus stearothermophilus; details: about 0.3 ppm ozone, 5 to 20 min, 0 hours post-treatment
Source text: as §1
By the use of toggle switches, the ozone was directed through glass spargers into either of two specifically designated 2-liter Erlenmeyer flasks containing one liter of distilled water. […] The ozone concentrations were measured using chemical oxidation of indigo dye using an Ozone Pocket Colorimeter™ per manufacturer's instructions (HACH, Inc., Loveland, Colo.). Bacillus spores, at a concentration of 2×10^6 spores/milliliter were exposed to ozone for treatment times of 0, 5, 10, 15, 20, and 30 minutes, after which times they were measured by MALS, AODC, and CFU, respectively. […]

[6] = tested on: B. subtilis; details: 8% humidified ozone sterilization; cited from earlier work
[7] = tested on: B. stearothermophilus; details: 8% humidified ozone sterilization; cited from earlier work
[8] = tested on: B. subtilis spores; experiment: Ethylene oxide sterilization of biological indicator; viability by MALS, AODC and TSA plating; type: cell-based, Bacillus subtilis
Protocol: The ethylene oxide sterilizer used herein was operated at the Department of Veterans Affairs, Processing & Distribution Section, VAHMCS Baltimore Division (Baltimore, Md.). The sterilizing cycle was fixed to include a 2.5 hour exposure to ethylene oxide followed by a de-gassing cycle of 14.5 hours. A non-biological indicator was used to also monitor the sterilization. A surgicot 2 (Surgicot, Research Triangle Park, N.C.) laminated EO Gas Indicator (Propper Manufacturing Co., Long Island, N.Y.) which registers a change in color after correct processing has been accomplished was used for this purpose.
After completion of the EO sterilization cycle, the BI culture was diluted and the spores were suspended in 5% BHI, as described above. […] Following heat-shock, the sample was incubated at 37° C. for 24 hours to ensure that viable cells could be detected if present. […] Direct plating on TSA was also performed to further determine the presence of viable cells.

With `OO` [H2O2, hydrogen peroxide] the “MALS N/No value” ([1]; H2O2-sterilized BI after 3 hours of incubation vs control at 0 minutes) was 1.0 and the “growth on TSA plates” value ([1]; STERRAD* cycle about 70 minutes, 10 plates on each of triplicate samples) was “no growth on any plate”.

With `O=[O+][O-]` [ozone] the “MALS % of control” value ([2]; 5 min treatment) was 65.33%, the “MALS Intensity” value ([2]; 5 min treatment, log weighted average of intensities at all detectors) was 1591.92 and the “MALS % of control” value ([2]; 10 min treatment) was 51.89%. The “MALS Intensity” value ([2]; 10 min treatment) was 1264.26, the “MALS % of control” value ([2]; 15 min treatment) was 42.67% and the “MALS Intensity” value ([2]; 15 min treatment) was 1039.64. For the same molecule, the “MALS % of control” value ([2]; 20 min treatment) was 34.94%, the “MALS Intensity” value ([2]; 20 min treatment) was 851.5 and the “MALS % of control” value ([2]; 30 min treatment) was 27.96%. For the same molecule, the “MALS Intensity” value ([2]; 30 min treatment) was 681.2, the “AODC % of control” value ([3]; 5 min treatment) was 68.3% and the “AODC Spores per ml” value ([3]; 5 min treatment) was 1.6 × 10^6 spores per ml. The “AODC % of control” value ([3]; 10 min treatment) was 49.5%, the “AODC Spores per ml” value ([3]; 10 min treatment) was 1.16 × 10^6 spores per ml and the “AODC % of control” value ([3]; 15 min treatment) was 55.1%. The “AODC Spores per ml” value ([3]; 15 min treatment) was 1.29 × 10^6 spores per ml, the “AODC % of control” value ([3]; 20 min treatment) was 20.8% and the “AODC Spores per ml” value ([3]; 20 min treatment) was 4.87 × 10^5 spores per ml. For the same molecule, the “AODC % of control” value ([3]; 30 min treatment) was 21.5%, the “AODC Spores per ml” value ([3]; 30 min treatment) was 5.03 × 10^5 spores per ml and the “kill of the spore population” value ([4]; 5 min) was 41.4%. For the same molecule, the “viable spores after treatment” value ([4]; 5 min) was 1.23×10^6 spores/ml, the “CFU % of AODC” value ([4]; 5 min treatment) was 76.9% and the “CFU % of Control” value ([4]; 5 min treatment) was 58.5%. The CFU/ml ([4]; 5 min treatment) was 1.23 × 10^6 CFU/ml, the “CFU % of AODC” value ([4]; 10 min treatment) was 14.5% and the “CFU % of Control” value ([4]; 10 min treatment) was 8.0%. For the same molecule, the CFU/ml ([4]; 10 min treatment) was 1.68 × 10^5 CFU/ml, the “kill of the spore population” value ([4]; 15 min) was 91% and the “viable spores after treatment” value ([4]; 15 min) was 1.8×10^3 spores/ml. The “CFU % of AODC” value ([4]; 15 min treatment) was 0.14%, the “CFU % of Control” value ([4]; 15 min treatment) was 0.09% and the CFU/ml ([4]; 15 min treatment) was 1.80 × 10^3 CFU/ml. For the same molecule, the “CFU % of AODC” value ([4]; 20 min treatment) was 0.04%, the “CFU % of Control” value ([4]; 20 min treatment) was 0.009% and the CFU/ml ([4]; 20 min treatment) was 1.82 × 10^2 CFU/ml. The “kill of the spore population” value ([4]; 30 min) was 99.995%, the “viable spores after treatment” value ([4]; 30 min) was 10 spores/mL and the “CFU % of AODC” value ([4]; 30 min treatment) was 0.04%. The “CFU % of Control” value ([4]; 30 min treatment) was 0.00005%, the CFU/ml ([4]; 30 min treatment) was 10 CFU/ml and the “CT (concentration x time) value” ([4]; 0.3 ppm×5 min) was 1.5. For the same molecule, the “CT (concentration x time) value” ([4]; 0.3 ppm×15 min) was 4.5, the “CT (concentration x time) value” ([4]; 0.3 ppm×30 min) was 9 and the “change in spore concentrations (MALS)” value [5] was “decreases in spore concentrations with increasing exposure to ozone”. The “D value (time required to reduce the number of spores by 1 log)” value [6] was 5 minutes and the “D value (time required to reduce the number of spores by 1 log)” value [7] was 4.3 minutes.

For `C1CO1` [EO, ethylene oxide], the “bacterial growth of BI immersed in water” value ([8]; EO samples immersed within 10, 50, and 100 ml of water) was “all positive for bacterial growth”, the “viable colonies on TSA plates” value ([8]; spores dried on glass slide, 2.5 hour EO exposure, heat-shocked, incubated in 5% BHI) was “no viable colonies” and the “AODC direct counts during incubation” value ([8]; spores dried on glass slide, EO cycle, 0 to 4 hours incubation) was “no increase in direct counts”.
